We go through 81 compounds from patent US20050154230A1, “Urea derivatives” (Bayer HealthCare AG, priority 2001, published 2005).

SMILES strings stand for the structures.

One experiment deals with T1, human VR1 (Homo sapiens, UniProt Q8NER1).
T1 construct: expressed in transfected cells
T1 sequence (Q8NER1 whole entry): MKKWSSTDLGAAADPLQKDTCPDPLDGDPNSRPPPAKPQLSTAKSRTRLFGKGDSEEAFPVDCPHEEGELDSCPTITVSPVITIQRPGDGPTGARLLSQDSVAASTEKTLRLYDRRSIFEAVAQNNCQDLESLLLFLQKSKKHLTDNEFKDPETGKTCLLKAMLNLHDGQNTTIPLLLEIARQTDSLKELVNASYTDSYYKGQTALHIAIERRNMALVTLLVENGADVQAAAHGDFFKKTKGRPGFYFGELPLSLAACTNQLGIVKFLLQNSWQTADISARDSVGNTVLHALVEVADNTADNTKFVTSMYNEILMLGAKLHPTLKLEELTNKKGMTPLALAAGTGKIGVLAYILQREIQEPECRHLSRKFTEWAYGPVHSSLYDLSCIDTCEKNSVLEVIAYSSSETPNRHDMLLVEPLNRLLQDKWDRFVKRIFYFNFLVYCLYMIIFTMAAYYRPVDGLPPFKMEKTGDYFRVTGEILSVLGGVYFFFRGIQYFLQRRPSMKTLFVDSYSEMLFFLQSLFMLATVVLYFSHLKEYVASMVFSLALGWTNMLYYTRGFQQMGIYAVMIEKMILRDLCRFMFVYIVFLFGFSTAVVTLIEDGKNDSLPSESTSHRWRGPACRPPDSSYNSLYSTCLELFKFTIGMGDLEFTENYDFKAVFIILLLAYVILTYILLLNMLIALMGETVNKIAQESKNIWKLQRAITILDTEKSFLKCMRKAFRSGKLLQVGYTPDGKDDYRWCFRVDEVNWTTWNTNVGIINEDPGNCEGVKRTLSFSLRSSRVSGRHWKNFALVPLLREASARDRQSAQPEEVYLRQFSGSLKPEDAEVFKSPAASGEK
Put plainly: Capsaicin-induced Ca2+ influx in the human VR1-transfected CHO cell line (Assay 1). Format: cell-based.
Conditions: not given
As for the experimental part: [Measurement of Capsaicin-Induced Ca^2+ Influx in the Human VR1-Transfected CHO Cell Line] (Assay 1)
(1) Establishment of the Human VR1-CHOluc9aeq Cell Line
The cloned hVR1 cDNA was constructed with pcDNA3 vector and transfected into a CHOluc9aeq cell line. The cell line contains aequorin and CRE-luciferase reporter genes as read-out signals. The transfectants were cloned by limiting dilution in selection medium (DMEM/F12 medium (Gibco BRL) supplemented with 10% FCS, 1.4 mM Sodium pyruvate, 20 mM HEPES, 0.15% Sodium bicarbonate, 100 U/ml penicillin, 100 μg/ml streptomycin, 2 mM glutamine, non-essential amino acids and 2 mg/ml G418). Ca^2+ influx was examined in the capsaicin-stimulated clones. […] The human VR1-CHOluc9aeq cells were maintained in the selection medium and passaged every 3-4 days at 1-2.5×10^5 cells/flask ([…]).
(2) Measurement of Ca^2+ Influx Using FDSS-3000
Human VR1-CHOluc9aeq cells were suspended in a culture medium which is the same as the selection medium except for G418 and seeded at a density of 1,000 cells per well into 384-well plates (black walled clear-base/Nalge Nunc International). […] After washing twice with assay buffer the cells were incubated with a test compound or vehicle for 20 min at 25° C. […] Integral R was calculated and compared with controls.
`O=C(Nc1cccc(OC(F)(F)F)c1)Nc1ccccc1CCO` [Example 2-2, N-[2-(2-hydroxyethyl)phenyl]-N′-[3(trifluoromethoxy)phenyl]urea] had an IC50 of under 100 nM.

`COc1cc(CNC(=O)Nc2ccc(Oc3ccccc3)cc2)ccc1O` [Example 76] came in with an IC50 of under 100 nM.

The experiment is the same for the next values; noted with them: human VR1-CHOluc9aeq cells, 10 nM capsaicin; compound purity about 40 to 90%; read-out: hVR1 class.
As to `COc1ccc(COc2cc(CNC(=O)Nc3ccccc3)ccc2OC)cc1` [Example 6], the IC50 fell in the range of 500 to 1000 nM.

On to `COc1ccc(COc2cc(CNC(=O)Nc3ccc(F)cc3)ccc2OC)cc1` [Example 7], for which the IC50 lay in the range of 500 to 1000 nM.

As to `COc1cccc(CNC(=O)Nc2cccc(SC)c2)c1` [Example 8], the IC50 is 500 to 1000 nM.

Consider `COc1cccc(CNC(=O)Nc2ccccc2)c1` [Example 9], for which the IC50 lay within 500 to 1000 nM.

Consider `COc1cccc(CNC(=O)Nc2cccc(OC)c2)c1` [Example 10], for which the IC50 fell in the range of 500 to 1000 nM.

With `COc1cccc(CNC(=O)Nc2ccc(F)cc2)c1` [Example 11], the IC50 was 500 to 1000 nM.

For the compound `COc1ccc(CNC(=O)Nc2cccc(SC)c2)cc1OC` [Example 12], the IC50 was in the range of 500 to 1000 nM.

As to `COc1ccc(CNC(=O)Nc2ccccc2)cc1OC` [Example 13], the IC50 lay in the range of 500 to 1000 nM.

As to `COc1cccc(NC(=O)NCc2ccc(OC)c(OC)c2)c1` [Example 14], the IC50 was 500 to 1000 nM.

As to `COc1ccc(CNC(=O)Nc2ccc(F)cc2)cc1OC` [Example 15], the IC50 lay in the range of 500 to 1000 nM.

As to `CSc1cccc(NC(=O)NCc2ccc3c(c2)OCO3)c1` [Example 16], the IC50 lay in the range of 500 to 1000 nM.

Turning to `O=C(NCc1ccc2c(c1)OCO2)Nc1ccccc1` [Example 17], the IC50 is 500 to 1000 nM.

With `COc1cccc(NC(=O)NCc2ccc3c(c2)OCO3)c1` [Example 18], the IC50 lay in the range of 500 to 1000 nM.

Turning to `O=C(NCc1ccc2c(c1)OCO2)Nc1ccc(F)cc1` [Example 19], the IC50 was in the range of 500 to 1000 nM.

For the compound `COc1cc2c(cc1OC)CN(C(=O)Nc1cccc(SC)c1)CC2` [Example 20], the IC50 was 500 to 1000 nM.

Regarding `COc1cc2c(cc1OC)CN(C(=O)Nc1ccccc1)CC2` [Example 21], the IC50 is 500 to 1000 nM.

In the case of `COc1cccc(NC(=O)N2CCc3cc(OC)c(OC)cc3C2)c1` [Example 22], the IC50 is 500 to 1000 nM.

On to `COc1cc2c(cc1OC)CN(C(=O)Nc1ccc(F)cc1)CC2` [Example 23], for which the IC50 was 500 to 1000 nM.

Regarding `COCOc1cccc(CNC(=O)Nc2ccccc2)c1` [Example 24], the IC50 fell in the range of 500 to 1000 nM.

With `COCOc1cccc(CNC(=O)Nc2cccc(OC)c2)c1` [Example 25], the IC50 lay in the range of 500 to 1000 nM.

As to `COCOc1cccc(CNC(=O)Nc2cccc(SC)c2)c1` [Example 26], the IC50 lay within 500 to 1000 nM.

As to `COCOc1cccc(CNC(=O)Nc2ccc(F)cc2)c1` [Example 27], the IC50 is 500 to 1000 nM.

Consider `O=C(NCc1cccc(O)c1)Nc1ccccc1` [Example 28], for which the IC50 was 500 to 1000 nM.

On to `CSc1cccc(NC(=O)NCc2cccc(O)c2)c1` [Example 29], for which the IC50 was 500 to 1000 nM.

On to `COc1cccc(NC(=O)NCc2cccc(O)c2)c1` [Example 30], for which the IC50 was 500 to 1000 nM.

For `O=C(NCc1cccc(O)c1)Nc1ccc(F)cc1` [Example 31], the IC50 was 500 to 1000 nM.

With `COc1cc(CNC(=O)Nc2cccc(SC)c2)ccc1O` [Example 32], the IC50 was in the range of 100 to 500 nM.

Consider `COc1cc(CNC(=O)Nc2ccccc2)ccc1O` [Example 33], for which the IC50 fell in the range of 500 to 1000 nM.

Consider `COc1ccc(CNC(=O)Nc2cccc(SC)c2)cc1O` [Example 35], for which the IC50 fell in the range of 500 to 1000 nM.

Regarding `COc1ccc(CNC(=O)Nc2ccccc2)cc1O` [Example 36], the IC50 was 500 to 1000 nM.

For the compound `CSc1cccc(NC(=O)NCc2cccc(Cl)c2)c1` [Example 37], the IC50 fell in the range of 500 to 1000 nM.

On to `O=C(NCc1cccc(Cl)c1)Nc1ccccc1` [Example 38], for which the IC50 was 500 to 1000 nM.

Take `COc1cccc(NC(=O)NCc2cccc(Cl)c2)c1` [Example 39]: the IC50 was in the range of 500 to 1000 nM.

For the compound `O=C(NCc1cccc(Cl)c1)Nc1ccc(F)cc1` [Example 40], the IC50 is 500 to 1000 nM.

Take `O=C(NCc1ccc(Cl)c(Cl)c1)Nc1ccccc1` [Example 42]: the IC50 is 100 to 500 nM.

For `COc1cccc(NC(=O)NCc2ccc(Cl)c(Cl)c2)c1` [Example 43], the IC50 is 100 to 500 nM.

As to `O=C(NCc1ccc(Cl)c(Cl)c1)Nc1ccc(F)cc1` [Example 44], the IC50 is 100 to 500 nM.

For `CSc1cccc(NC(=O)NCc2cccc(F)c2)c1` [Example 45], the IC50 lay in the range of 500 to 1000 nM.

Consider `O=C(NCc1cccc(F)c1)Nc1ccccc1` [Example 46], for which the IC50 is 500 to 1000 nM.

Turning to `COc1cccc(NC(=O)NCc2cccc(F)c2)c1` [Example 47], the IC50 was in the range of 500 to 1000 nM.

Consider `O=C(NCc1cccc(F)c1)Nc1ccc(F)cc1` [Example 48], for which the IC50 is 500 to 1000 nM.

As for `CSc1cccc(NC(=O)NCc2ccc(F)c(F)c2)c1` [Example 49], the IC50 fell in the range of 500 to 1000 nM.

For `O=C(NCc1ccc(F)c(F)c1)Nc1ccccc1` [Example 50], the IC50 was 500 to 1000 nM.

For `COc1cccc(NC(=O)NCc2ccc(F)c(F)c2)c1` [Example 51], the IC50 was in the range of 500 to 1000 nM.

Turning to `O=C(NCc1ccc(F)c(F)c1)Nc1ccc(F)cc1` [Example 52], the IC50 fell in the range of 500 to 1000 nM.

As for `COc1cc(CNC(=O)Nc2cccc(C(C)=O)c2)ccc1O` [Example 59], the IC50 was 500 to 1000 nM.

Consider `COC(=O)c1ccccc1NC(=O)NCc1ccc(O)c(OC)c1` [Example 61], for which the IC50 was 500 to 1000 nM.

As for `COc1cc(CNC(=O)Nc2ccc([N+](=O)[O-])cc2Cl)ccc1O` [Example 67], the IC50 fell in the range of 500 to 1000 nM.

For the compound `COc1cc(CNC(=O)NCc2ccc(Br)cc2)ccc1O` [Example 68], the IC50 lay within 100 to 500 nM.

Take `COc1cc2c(cc1O)CN(C(=O)Nc1ccc(Cl)c(C(F)(F)F)c1)CC2` [Example 69]: the IC50 fell in the range of 100 to 500 nM.

Turning to `COc1cc(CNC(=O)Nc2ccccc2F)ccc1O` [Example 75], the IC50 is 100 to 500 nM.

On to `COc1cc(CNC(=O)NCCc2ccccc2)ccc1O` [Example 77], for which the IC50 was in the range of 100 to 500 nM.

For `COc1cc(CNC(=O)Nc2ccccc2Cl)ccc1O` [Example 79], the IC50 was 100 to 500 nM.

On to `COc1cc(CNC(=O)Nc2cc(C(F)(F)F)ccc2Cl)ccc1O` [Example 80], for which the IC50 was under 100 nM.

On to `COc1cc(CNC(=O)Nc2cccc(Cl)c2)ccc1O` [Example 81], for which the IC50 is under 100 nM.

For `NS(=O)(=O)c1ccc2c(c1)CN(C(=O)Nc1ccc(Cl)c(C(F)(F)F)c1)CC2` [Example 84], the IC50 is 100 to 500 nM.

Consider `CNS(=O)(=O)c1ccc2c(c1)CN(C(=O)Nc1ccc(Cl)c(C(F)(F)F)c1)CC2` [Example 85], for which the IC50 was 500 to 1000 nM.

For `CN(C)S(=O)(=O)c1ccc2c(c1)CN(C(=O)Nc1ccc(Cl)c(C(F)(F)F)c1)CC2` [Example 86], the IC50 is 500 to 1000 nM.

Regarding `CN(C)CCNS(=O)(=O)c1ccc2c(c1)CN(C(=O)Nc1ccc(Cl)c(C(F)(F)F)c1)CC2` [Example 87], the IC50 was 500 to 1000 nM.

`CN(C)S(=O)(=O)c1ccc2c(c1)CN(C(=O)Nc1ccc(Oc3ccccc3)cc1)CC2` [Example 88]: the IC50 is 500 to 1000 nM.

On to `O=C(Nc1ccc(Oc2ccccc2)cc1)N1CCc2ccc(S(=O)(=O)N3CCN(CCO)CC3)cc2C1` [Example 89], for which the IC50 fell in the range of 500 to 1000 nM.

As for `CS(=O)(=O)Nc1ccc2c(c1)CN(C(=O)NCc1ccc(Br)cc1)CC2` [Example 90], the IC50 was in the range of 500 to 1000 nM.

As for `CS(=O)(=O)Nc1ccc2c(c1)CN(C(=O)Nc1ccc(Oc3ccccc3)cc1)CC2` [Example 91], the IC50 is 500 to 1000 nM.

For the compound `CS(=O)(=O)Nc1ccc2c(c1)CN(C(=O)Nc1ccc(Cl)c(C(F)(F)F)c1)CC2` [Example 92], the IC50 was 100 to 500 nM.

As to `CS(=O)(=O)Nc1ccc2c(c1)CN(C(=O)Nc1ccc(Br)cc1)CC2` [Example 93], the IC50 was in the range of 500 to 1000 nM.

As for `O=C(Nc1ccc(Cl)c(C(F)(F)F)c1)NC1CCCc2ccc([N+](=O)[O-])cc21` (stereo not drawn) [Example 94], the IC50 was in the range of 500 to 1000 nM.

Regarding `CNS(=O)(=O)c1ccc2c(c1)CN(C(=O)Nc1ccc(Oc3ccccc3)cc1)CC2` [Example 95], the IC50 fell in the range of 500 to 1000 nM.

For `CC(=O)Nc1ccc2c(c1)C(NC(=O)Nc1ccc(Cl)c(C(F)(F)F)c1)CCC2` (stereo not drawn) [Example 97], the IC50 fell in the range of 500 to 1000 nM.

Take `O=C(Nc1ccccc1F)Nc1ccccc1CCO` [Example 130]: the IC50 was 500 to 1000 nM.

As for `O=C(Nc1ccccc1CCO)Nc1cccc(Cl)c1Cl` [Example 137], the IC50 lay within 500 to 1000 nM.

In the case of `O=C(Nc1ccc(Cl)cc1Cl)Nc1ccccc1CCO` [Example 138], the IC50 lay in the range of 500 to 1000 nM.

As to `O=C(Nc1ccccc1CCO)Nc1c(Cl)cccc1Cl` [Example 139], the IC50 lay within 500 to 1000 nM.

Turning to `CCOC(=O)c1ccccc1NC(=O)Nc1ccccc1CCO` [Example 140], the IC50 lay within 500 to 1000 nM.

`O=C(Nc1ccccc1CCO)Nc1ccccc1-c1ccccc1` [Example 141]: the IC50 lay within 500 to 1000 nM.

Regarding `CC(C)c1cccc(C(C)C)c1NC(=O)Nc1ccccc1CCO` [Example 142], the IC50 lay within 500 to 1000 nM.

Consider `O=C(Nc1ccccc1CCO)Nc1ccc(Cl)cc1C(F)(F)F` [Example 143], for which the IC50 was in the range of 500 to 1000 nM.

On to `O=C(Nc1cc(C(F)(F)F)ccc1Cl)Nc1ccccc1CCO` [Example 144], for which the IC50 is 100 to 500 nM.

As for `O=C(Nc1cc(Cl)ccc1Cl)Nc1ccccc1CCO` [Example 162], the IC50 lay in the range of 500 to 1000 nM.

With `CCOC(=O)c1ccc(NC(=O)Nc2ccccc2CCO)cc1` [Example 163], the IC50 was in the range of 500 to 1000 nM.
